Assay results as given in PMC3944116 (CPT: Pharmacometrics & Systems Pharmacology, 2014).

How the values were obtained:
[1] = cited from earlier work
CYP3A4/CYP3A5 = conditions: for Mean value (%), difference in CL/F, cluster C1 vs C4: C1: CYP3A5*1 noncarriers and CYP3A4*22 carriers; for Mean value (%), difference in CL/F, cluster C2 vs C4: C2: CYP3A5*1 noncarriers and CYP3A4*22 noncarriers
CYP3A4 = test: Pharmacogenetic covariate analysis: CYP3A4*22 on CL/F; type: in vivo, human; conditions: stated as % lower in text; univariate on base model
Population PK modeling = conditions: for Q/F, intercompartmental clearance: F fixed 0.5/1/0.23
CYP3A5 = test: Pharmacogenetic covariate analysis: CYP3A5*3 on CL/F; type: in vivo, human; conditions: final model; fractional change of CL/F in CYP3A5*1 carriers
[2] = base model without covariates, population estimate
[3] = final model with covariates, population estimate
[4] = final model, median of 1,000 bootstrap runs

Row | Structure (SMILES) | plasma fraction bound to plasma proteins [1] [%] | Mean value (%), difference in CL/F, cluster C1 vs C4 (CYP3A4/CYP3A5; univariate on base model) [%] | Mean value (%), difference in CL/F, cluster C2 vs C4 (CYP3A4/CYP3A5; univariate on base model) [%] | lower clearance of CYP3A4*22 carriers compared with noncarriers (CYP3A4) [%] | Lagtime of absorption (Population PK modeling; [2]) [h] | Q/F, intercompartmental clearance (Population PK modeling; [2]) [L/h] | Vp/F, apparent peripheral distribution volume (Population PK modeling; base model without covariates, population estimate, fixed to 500 for tacrolimus) [L] | Vp/F (Population PK modeling; final model with covariates, fixed to 500 for tacrolimus) [L] | Ka (Population PK modeling; [3]) [h⁻¹] | Lagtime (Population PK modeling; [3]) [h] | Q/F (Population PK modeling; [3]) [L/h] | Vc/F (Population PK modeling; [3]) [L] | CL/F (Population PK modeling; [4]) [L/h] | IBW on Vc/F, covariate effect (Population PK modeling; final model, ideal BW centered on population median, exponential function) | CYP3A5*3 on CL/F, covariate effect (CYP3A5) | difference in clearance introduced for noncarriers of the CYP3A5*1 allele by CYP3A4*22 carriership (CYP3A4/CYP3A5; C1 vs C2) [%] | Mean value (%), difference in CL/F, cluster C3 vs C4 (CYP3A4/CYP3A5; C3: CYP3A5*1 carriers and CYP3A4*22 carriers, univariate on base model) [%] | DDPR ≤25 mg (IOV F) (Population PK modeling; [4]) | HTC on CL/F + IOV F, covariate effect (Population PK modeling; final model, hematocrit)
1 | CO[C@H]1C[C@@H]2CC[C@@H](C)[C@@](O)(O2)C(=O)C(=O)N2CCCC[C@H]2C(=O)O[C@H]([C@H](C)C[C@@H]2CC[C@@H](OCCO)[C@H](OC)C2)CC(=O)[C@H](C)/C=C(\C)[C@@H](O)[C@@H](OC)C(=O)[C@H](C)C[C@H](C)/C=C/C=C/C=C/1C [Everolimus] | 75 | −15 | −10 | 7 | 0.71 | 42.7 | 348 | 343 | 7 | 0.71 | 43.1 | 140 | 16.7 | −0.96 |  |  |  |  | 
2 | C=CC[C@@H]1/C=C(\C)C[C@H](C)C[C@H](OC)[C@H]2O[C@@](O)(C(=O)C(=O)N3CCCC[C@H]3C(=O)O[C@H](/C(C)=C/[C@@H]3CC[C@@H](O)[C@H](OC)C3)[C@H](C)[C@@H](O)CC1=O)[C@H](C)C[C@@H]2OC [Tacrolimus] |  | −47 | −33 |  | 0.81 | 17.2 |  |  | 0.55 | 0.81 | 21 | 25.5 |  |  | 0.52 | 14 | −3 | 0.32 | −0.587
